Laboratory results published in the SangsterLogP compilation.

logP | Structure (SMILES)
2.62 | NN(C(=O)c1ccc([N+](=O)[O-])cc1)c1ccccc1
1.23 | COc1ccc(C(=O)N(C)N)cc1
0.99 | CN(N)C(=O)c1ccc([N+](=O)[O-])cc1
3.39 | C/C=N/N(C(=O)c1ccc(C)cc1)c1ccccc1
2.8 | COc1ccc(C(=O)N(C)NC(=S)Nc2ccccc2)cc1
3.1 | Cc1ccc(C(=O)N(N)c2ccccc2)cc1
4.12 | Cc1ccc(C(=O)N(NC(=S)Nc2ccccc2)c2ccccc2)cc1
2.88 | CC=NN(C(=O)c1ccccc1)c1ccccc1
0.96 | CN(N)C(=O)c1ccccc1
3.27 | CC=NN(C(=O)c1ccc(OC)cc1)c1ccccc1
2.88 | Cc1ccc(C(=O)N(C)NC(=S)Nc2ccccc2)cc1
1.57 | Cc1ccc(C(=O)N(C)N)cc1
2.69 | CN(NC(=S)Nc1ccccc1)C(=O)c1ccc([N+](=O)[O-])cc1
3.91 | O=C(c1ccc([N+](=O)[O-])cc1)N(NC(=S)Nc1ccccc1)c1ccccc1
2.44 | NN(C(=O)c1ccccc1)c1ccccc1
2.94 | COc1ccc(C(=O)N(N)c2ccccc2)cc1
3.14 | C/C=N/N(C(=O)c1ccc([N+](=O)[O-])cc1)c1ccccc1
